Assay results from US10077243B2, “Compounds for treating disorders mediated by metabotropic glutamate receptor 5, and methods of use thereof” (Sunovion Pharmaceuticals Inc., priority 2009, dated 2018).

Molecular target: T1, human mGluR5 (Homo sapiens, UniProt P41594)
T1 construct: expressed in transfected cells; host or cells: HEK293 cells stably expressing rat GLAST (EAAT1), stably transfected with pcDNAzeo3.1 carrying synthetic human mGluR5 DNA; zeocin-selected single clones
Assay: In vitro cell-based FLIPR calcium assay for positive modulation of the activation of mGluR5 by glutamate (PAM EC50)
Settings: HEK293/GLAST cells expressing recombinant human mGluR5; FLIPR calcium signal; glutamate added at its EC20; read-out: mGluR5 PAM EC50
How it was run: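 HEK293/GLAST cells stably expressing mGluR5 were loaded with calcium-sensitive dye (25 °C, 45–60 min) in HBSS/20 mM HEPES. Test compounds were assayed in buffer containing glutamate at that day's EC20, with FLIPR fluorescence recorded. Controls contained 0.3% DMSO without compound.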

T1 sequence (P41594 21-1212): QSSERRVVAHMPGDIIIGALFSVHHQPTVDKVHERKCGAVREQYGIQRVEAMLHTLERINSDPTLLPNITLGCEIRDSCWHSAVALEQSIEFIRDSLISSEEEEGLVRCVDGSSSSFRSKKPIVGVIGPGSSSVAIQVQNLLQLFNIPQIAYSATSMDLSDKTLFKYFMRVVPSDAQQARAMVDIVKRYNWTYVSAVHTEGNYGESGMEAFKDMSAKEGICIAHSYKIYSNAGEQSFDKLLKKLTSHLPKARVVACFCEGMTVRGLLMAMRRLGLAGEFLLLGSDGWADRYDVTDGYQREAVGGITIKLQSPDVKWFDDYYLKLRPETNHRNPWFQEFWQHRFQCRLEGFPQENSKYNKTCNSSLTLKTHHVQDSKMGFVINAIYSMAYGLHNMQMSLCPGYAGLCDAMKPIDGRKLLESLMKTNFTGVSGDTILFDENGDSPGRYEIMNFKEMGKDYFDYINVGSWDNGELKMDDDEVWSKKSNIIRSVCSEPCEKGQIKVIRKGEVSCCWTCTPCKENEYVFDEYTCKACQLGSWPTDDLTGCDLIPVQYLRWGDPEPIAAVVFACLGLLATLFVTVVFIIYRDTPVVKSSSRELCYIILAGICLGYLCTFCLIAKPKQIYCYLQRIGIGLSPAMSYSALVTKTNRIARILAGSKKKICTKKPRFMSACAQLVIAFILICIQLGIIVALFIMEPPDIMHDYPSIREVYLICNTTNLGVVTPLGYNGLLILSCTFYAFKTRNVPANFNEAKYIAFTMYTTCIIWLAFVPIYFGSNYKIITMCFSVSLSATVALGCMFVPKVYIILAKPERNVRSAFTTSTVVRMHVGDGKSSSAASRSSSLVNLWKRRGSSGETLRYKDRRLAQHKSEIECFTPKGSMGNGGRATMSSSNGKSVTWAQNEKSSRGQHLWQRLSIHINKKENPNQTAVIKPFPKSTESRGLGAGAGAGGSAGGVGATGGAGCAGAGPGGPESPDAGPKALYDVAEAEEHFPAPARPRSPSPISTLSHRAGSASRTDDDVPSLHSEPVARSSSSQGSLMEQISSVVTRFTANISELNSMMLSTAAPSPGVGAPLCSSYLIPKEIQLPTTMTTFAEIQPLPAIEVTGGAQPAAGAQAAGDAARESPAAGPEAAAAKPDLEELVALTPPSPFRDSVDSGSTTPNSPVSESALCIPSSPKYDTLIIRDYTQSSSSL

O=c1c2ccc(C#Cc3cccc(F)c3)cc2nc2n1CCC1(CC2)OCCO1 [Example 6.34, 3-((3-fluorophenyl)ethynyl)-9,10-dihydro-6H-spiro[azepino[2,1-b]quinazoline-8,2′-[1,3]dioxolan]-12(7H)-one]
EC50: 10 to 30 nM

O=c1c2ccc(C#Cc3ccccc3)cc2nc2n1CCC1(CC2)OCCO1 [Example 7.1]
EC50: 10 to 30 nM

CC1CCCc2nc3cc(C#Cc4ccccn4)ccc3c(=O)n2C1 (centres unmarked) [Example 6.42, 9-methyl-3-(pyridin-2-ylethynyl)-7,8,9,10-tetrahydroazepino[2,1-b]quinazolin-12(6H)-one]
EC50: < 10 nM

COCc1nc2cc(C#Cc3cccc(F)c3)ccc2c(=O)n1C [Example 2.18, 7-((3-fluorophenyl)ethynyl)-2-(methoxymethyl)-3-methylquinazolin-4(3H)-one]
EC50: 10 to 30 nM

CC1(C)CCc2nc3cc(C#Cc4ccccn4)ccc3c(=O)n2C1 [Example 4.16, 8,8-dimethyl-3-(pyridin-2-ylethynyl)-8,9-dihydro-6H-pyrido[2,1-b]quinazolin-11(7H)-one]
EC50: < 10 nM

C=CCC1CCCCc2nc3cc(C#Cc4ccc(F)cc4)ccc3c(=O)n21 (centres unmarked) [Example 6.33, 10-allyl-3-((4-fluorophenyl)ethynyl)-7,8,9,10-tetrahydroazepino[2,1-b]quinazolin-12(6H)-one]
EC50: 10 to 30 nM

O=c1c2ccc(C#Cc3cccc(F)c3)cc2nc2n1CCN(Cc1ccccc1)C2 [Example 5.10, 2-benzyl-9-((3-fluorophenyl)ethynyl)-3,4-dihydro-1H-pyrazino[2,1-b]quinazolin-6(2H)-one]
EC50: 300 to 1000 nM

CC1CCc2nc3cc(C#Cc4cccc(C#N)n4)ccc3c(=O)n2CC1 (centres unmarked) [Example 6.47, 6-((8-methyl-12-oxo-6,7,8,9,10,12-hexahydroazepino[2,1-b]quinazolin-3-yl)ethynyl)picolinonitrile]
EC50: 30 to 100 nM

O=c1c2c(nc3cc(C#Cc4ccc(F)cc4)ccn13)CCCCC2 [Example 16.1, 3-((4-fluorophenyl)ethynyl)-7,8,9,10-tetrahydrocyclohepta[d]pyrido[1,2-a]pyrimidin-11(6H)-one]
EC50: < 10 nM

O=c1c2ccc(C#Cc3cccc(F)c3)cc2nc2n1CCNCC2 [Example 8.6, 8-((3-fluorophenyl)ethynyl)-2,3,4,5-tetrahydro-[1,4]diazepino[7,1-b]quinazolin-11(1H)-one]
EC50: 100 to 300 nM

CN1CCn2c(nc3cc(C#Cc4ccccn4)ccc3c2=O)C1 [Example 5.5, 2-methyl-9-(pyridin-2-ylethynyl)-3,4-dihydro-1H-pyrazino[2,1-b]quinazolin-6(2H)-one]
EC50: 100 to 300 nM

O=c1c2c(nc3cc(C#Cc4ccncc4)ccn13)CCCCCC2 [Example 17.4, 3-(pyridin-4-ylethynyl)-8,9,10,11-tetrahydro-6H-cycloocta[d]pyrido[1,2-a]pyrimidin-12(7H)-one]
EC50: < 10 nM

CC1(C)CCc2nc3cc(/C=C/c4cccc(C#N)n4)ccc3c(=O)n2C1 [Example 20.13, (E)-6-(2-(8,8-dimethyl-11-oxo-7,8,9,11-tetrahydro-6H-pyrido[2,1-b]quinazolin-3-yl)vinyl)picolinonitrile]
EC50: 10 to 30 nM

O=c1c2ccc(C#Cc3cccc(Cl)c3)cc2nc2n1CCC1(CC2)OCCO1 [Example 7.8]
EC50: 300 to 1000 nM

O=c1c2c(nc3cc(C#Cc4ccccn4)ccn13)C[C@@H]1CCCN1C2 [Example 15.7, (S)-10-(pyridin-2-ylethynyl)-2,3,13,13a-tetrahydro-1H-pyrido[1′,2′:1,2]pyrimido[5,4-f]indolizin-6(5H)-one]
EC50: 300 to 1000 nM

O=c1c2ccc(C#Cc3ccc(F)cc3)cc2nc2n1CCCC2 [Example 4.5, 3-((4-fluorophenyl)ethynyl)-8,9-dihydro-6H-pyrido[2,1-b]quinazolin-11(7H)-one]
EC50: < 10 nM

CC1(C)Cc2nc3cc(C#Cc4ccccn4)cnc3c(=O)n2C1 [Example 11.10, 7,7-dimethyl-3-(pyridin-2-ylethynyl)-7,8-dihydropyrido[3,2-d]pyrrolo[1,2-a]pyrimidin-10(6H)-one]
EC50: 30 to 100 nM

O=c1c2ccc(C#Cc3ccncc3)cc2nc2n1CCC1(CC2)OCCO1 [Example 7.12]
EC50: 10 to 30 nM

CC1Cc2nc3cc(C#Cc4ccccn4)cnc3c(=O)n2C1 (centres unmarked) [Example 11.13, 7-methyl-3-(pyridin-2-ylethynyl)-7,8-dihydropyrido[3,2-d]pyrrolo[1,2-a]pyrimidin-10(6H)-one]
EC50: 300 to 1000 nM

O=C1CCn2c(nc3cc(C#Cc4cccc(F)c4)ccc3c2=O)CCN1 [Example 10.6, 11-((3-fluorophenyl)ethynyl)-2,3,5,6-tetrahydro-1H-[1,5]diazocino[2,1-b]quinazoline-4,8-dione]
EC50: 30 to 100 nM
